Our source for the mutagenic call values is PubChem BioAssay AID1259407 (Chemical Carcinogenesis Research Information System (CCRIS), 2018).

The test system of this data set is CCRIS mutagenicity, Ames/micronucleus/aberration tests. Description: CCRIS mutagenicity studies.
Setting [1] is: Test System: AMES SALMONELLA TYPHIMURIUM, Strain/Indicator: TA100, Metabolic Activation: NONE, Method: STANDARD PLATE.

The source made the active and inactive calls. How the calls were made is not given here.

As to `CCC(=O)OCC(=O)[C@@]1(OC(=O)CC)[C@H](C)C[C@H]2[C@H]3[C@H]([C@@H](O)C[C@@]21C)[C@@]1(C)C=CC(=O)C=C1C[C@H]3Cl`, the mutagenic call is “inactive; negative” (Test System: AMES SALMONELLA TYPHIMURIUM, Strain/Indicator: TA98, Metabolic Activation: NONE, Method: STANDARD PLATE); “inactive; negative” (Test System: AMES SALMONELLA TYPHIMURIUM, Strain/Indicator: TA98, Metabolic Activation: RAT, LIVER, S-9, AROCLOR 1254, Method: STANDARD PLATE); “inactive; negative” under setting [1]; “inactive; negative” (Test System: AMES SALMONELLA TYPHIMURIUM, Strain/Indicator: TA100, Metabolic Activation: RAT, LIVER, S-9, AROCLOR 1254, Method: STANDARD PLATE); “inactive; negative” (Test System: AMES SALMONELLA TYPHIMURIUM, Strain/Indicator: TA1535, Metabolic Activation: NONE, Method: STANDARD PLATE); “inactive; negative” (Test System: AMES SALMONELLA TYPHIMURIUM, Strain/Indicator: TA1535, Metabolic Activation: RAT, LIVER, S-9, AROCLOR 1254, Method: STANDARD PLATE). For the same compound, the mutagenic call is “inactive; negative” (Test System: AMES SALMONELLA TYPHIMURIUM, Strain/Indicator: TA1537, Metabolic Activation: NONE, Method: STANDARD PLATE); “inactive; negative” (Test System: AMES SALMONELLA TYPHIMURIUM, Strain/Indicator: TA1537, Metabolic Activation: RAT, LIVER, S-9, AROCLOR 1254, Method: STANDARD PLATE); “inactive; negative” (Test System: E. COLI, Strain/Indicator: WP2, Metabolic Activation: NONE, Method: STANDARD PLATE); “inactive; negative” (Test System: E. COLI, Strain/Indicator: WP2, Metabolic Activation: RAT, LIVER, S-9, AROCLOR 1254, Method: STANDARD PLATE); “inactive; negative” (Test System: E. COLI, Strain/Indicator: WP2 UVRA, Metabolic Activation: NONE, Method: STANDARD PLATE); “inactive; negative” (Test System: E. COLI, Strain/Indicator: WP2 UVRA, Metabolic Activation: RAT, LIVER, S-9, AROCLOR 1254, Method: STANDARD PLATE).

As for `O=CN(O)c1ccc(Oc2ccc(Cl)cc2)cc1`, the mutagenic call under setting [1] is “inactive; negative” and the mutagenic call (Test System: AMES SALMONELLA TYPHIMURIUM, Strain/Indicator: TA100, Metabolic Activation: RAT, LIVER, S-9, KANECLOR 500, Method: STANDARD PLATE) is “active; positive”.

For `O=C(O)C(Cl)Br` (centres undefined), the mutagenic call by setting is: (End Point: In vivo micronucleus, Test System: Peripheral blood normochromatic erythrocytes, Species: Mouse, Strain/Sex: B6C3F1/Female, Route: Oral) “inactive; negative”; (End Point: In vivo micronucleus, Test System: Peripheral blood normochromatic erythrocytes, Species: Mouse, Strain/Sex: B6C3F1/Male, Route: Oral) “inactive; negative”; (Test System: AMES SALMONELLA TYPHIMURIUM, Strain/Indicator: TA98, Metabolic Activation: NONE, Method: PREINCUBATION) “inactive; negative”; (Test System: AMES SALMONELLA TYPHIMURIUM, Strain/Indicator: TA98, Metabolic Activation: RAT, LIVER, S-9, PHENOBARBITAL AND 5,6-BENZOFLAVONE, Method: PREINCUBATION) “inactive; negative”; (Test System: AMES SALMONELLA TYPHIMURIUM, Strain/Indicator: TA100, Metabolic Activation: NONE, Method: PREINCUBATION) “active; positive”; (Test System: AMES SALMONELLA TYPHIMURIUM, Strain/Indicator: TA100, Metabolic Activation: RAT, LIVER, S-9, PHENOBARBITAL AND 5,6-BENZOFLAVONE, Method: PREINCUBATION) “active; positive”. Moreover, the mutagenic call is “inactive; negative” (Test System: Ames Salmonella typhimurium, Strain/Indicator: TA98, Metabolic Activation: Hamster, Liver, S9, Aroclor 1254, Method: Preincubation); “inactive; negative” (Test System: Ames Salmonella typhimurium, Strain/Indicator: TA98, Metabolic Activation: None, Method: Preincubation); “inactive; negative” (Test System: Ames Salmonella typhimurium, Strain/Indicator: TA98, Metabolic Activation: Rat, Liver, S9, Aroclor 1254, Method: Preincubation); “active; positive” (Test System: Ames Salmonella typhimurium, Strain/Indicator: TA100, Metabolic Activation: Hamster, Liver, S9, Aroclor 1254 (30%), Method: Preincubation); “active; positive” (Test System: Ames Salmonella typhimurium, Strain/Indicator: TA100, Metabolic Activation: Rat, Liver, S9, Aroclor 1254 (10%), Method: Preincubation); “active; positive” (Test System: Ames Salmonella typhimurium, Strain/Indicator: TA100, Metabolic Activation: Rat, Liver, S9, Aroclor 1254 (30%), Method: Preincubation). Also, the mutagenic call (Test System: E. coli, Strain/Indicator: WP2 uvrA/pKM101, Metabolic Activation: None, Method: Preincubation) is “inactive; negative” and the mutagenic call (Test System: E. coli, Strain/Indicator: WP2 uvrA/pKM101, Metabolic Activation: Rat, Liver, S9, Aroclor 1254 (10%), Method: Preincubation) was “inactive; negative”.

Consider `CNC(N)=O`, for which the mutagenic call (End Point: IN VITRO MICRONUCLEUS, Test System: V79 CELLS, Metabolic Activation: NONE) is “inactive; negative”.
